Test results reported in ChEMBL document CHEMBL1151057, “Difunctional enols of N-protected amino acids as low molecular weight and novel inhibitors of HIV-1 protease” (Bioorg Med Chem Lett, 1993).

These compounds were tested against T1, Human immunodeficiency virus type 1 protease (Human immunodeficiency virus 1, UniProt Q72874) (assay: Inhibitory constant against HIV-1 protease was determined). Settings: not given; call rule not given here.
`CC(=O)NC(CC(C)C)C(=O)N[C@@H](Cc1ccccc1)/C(O)=C(\C#N)c1ccc([N+](=O)[O-])cc1` (stereo partly drawn) showed a Ki of 9.5 µM. `CC(=O)NC(CC(C)C)C(=O)N[C@@H](Cc1ccccc1)/C(O)=C(\C#N)c1ccncc1` (stereo partly drawn) was tested, and the Ki was 168 µM. `CCOP(=O)(OCC)/C(C#N)=C(\O)[C@H](Cc1ccccc1)NC(=O)C(CC(C)C)NC(C)=O` (stereo partly drawn) was tested, and the Ki was 206 µM. `CC(=O)NC(CC(C)C)C(=O)N[C@@H](Cc1ccccc1)/C(O)=C(\C#N)S(=O)(=O)c1ccccc1` (stereo partly drawn) showed a Ki of 152 µM. For `CO/C(O)=C(/C#N)C(=O)[C@H](Cc1ccccc1)NC(=O)C(CC(C)C)NC(C)=O` (stereo partly drawn), the Ki was 209 µM.

The compounds below were run against T1, Human immunodeficiency virus type 1 protease (assay: Inhibitory concentration required to inhibit HIV-1 protease was determined). Settings: not given.
`CC(C)(C)OC(=O)NCC(=O)N[C@@H](Cc1ccccc1)/C(O)=C(\C#N)c1ccc([N+](=O)[O-])cc1` showed an IC50 of 58 µM.

Each compound was assayed against T1, Human immunodeficiency virus type 1 protease (assay: Inhibitory constant against HIV-1 protease at 400 uM; NI means no inhibition). Settings: not given.
For `CC(=O)NC(CC(C)C)C(=O)N[C@@H](Cc1ccccc1)C(O)=C(C#N)C#N` (stereo partly drawn), the Ki was “Not Active”.

The compounds below were run against T1, Human immunodeficiency virus type 1 protease (assay: Apparent inhibitory constant against HIV-1 protease was determined). Settings: read-out: Ki app.
`CC(C)(C)OC(=O)N[C@@H](Cc1ccccc1)/C(O)=C(\C#N)c1c(F)c(F)c(F)c(F)c1F` was tested, and the Ki was 0.48 µM. Work on `CC(=O)NC(CC(C)C)C(=O)N[C@@H](Cc1ccccc1)/C(O)=C(\C#N)c1ccc([N+](=O)[O-])cc1` (stereo partly drawn) yielded a Ki of 9 µM. `N#C/C(=C(/O)[C@H](Cc1ccccc1)NC(=O)OCc1ccccc1)c1ccc([N+](=O)[O-])cc1` gave a Ki of 30 µM. For `CC(C)(C)OC(=O)N[C@@H](C(=O)C(N)Cc1ccccc1)/C(O)=C/c1ccc([N+](=O)[O-])cc1` (stereo partly drawn), the Ki was 689 µM. For `CC(C)(C)OC(=O)N[C@@H](C(=O)[C@@H](N)Cc1ccccc1)/C(O)=C(\C#N)c1ccc([N+](=O)[O-])cc1`, the Ki was 54 µM. `CC(C)(C)OC(=O)N[C@@H](C(=O)C(N)CC1CCCCC1)/C(O)=C(\C#N)c1ccc([N+](=O)[O-])cc1` (stereo partly drawn) was tested, and the Ki was 15 µM. `CC(C)(C)OC(=O)N[C@@H](C(=O)C(N)c1ccccc1)/C(O)=C(\C#N)c1ccc([N+](=O)[O-])cc1` (stereo partly drawn) gave a Ki of 30 µM. `CC(C)(C)OC(=O)N[C@@H](C(=O)C(N)Cc1c[nH]c2ccccc12)/C(O)=C(\C#N)c1ccc([N+](=O)[O-])cc1` (stereo partly drawn) showed a Ki of 18 µM. `CC(C)(C)OC(=O)N[C@@H](C(=O)C(N)Cc1ccc([N+](=O)[O-])cc1)/C(O)=C(\C#N)c1ccc([N+](=O)[O-])cc1` (stereo partly drawn) was tested, and the Ki was 60 µM. `CC(C)(C)OC(=O)N[C@@H](C(=O)C(N)Cc1ccc2ccccc2c1)/C(O)=C(\C#N)c1ccc([N+](=O)[O-])cc1` (stereo partly drawn) showed a Ki of 38 µM. `CC(C)(C)OC(=O)N[C@@H](Cc1ccccc1)/C(O)=C(\C#N)c1ccc([N+](=O)[O-])cc1` showed a Ki of 2.3 µM. `CC(=O)NC(CC(C)C)C(=O)N[C@@H](Cc1ccccc1)/C(O)=C(\C#N)c1c(F)c(F)c(F)c(F)c1F` (stereo partly drawn) gave a Ki of 7 µM. `N#C/C(=C(/O)[C@H](Cc1ccccc1)NC(=O)OCC1c2ccccc2-c2ccccc21)c1ccc([N+](=O)[O-])cc1` showed a Ki of 78 µM. `CC(C)(C)OC(=O)N[C@@H](C(=O)C1CCCN1)/C(O)=C(\C#N)c1ccc([N+](=O)[O-])cc1` (stereo partly drawn) showed a Ki of 181 µM. `CC(C)(C)OC(=O)N[C@H](C(=O)/C(C#N)=C(\O)c1ccccc1)C(=O)C(N)Cc1ccccc1` (stereo partly drawn) showed a Ki of 320 µM. `CC(C)(C)OC(=O)N[C@@H](C(=O)C(N)Cc1ccc(OCc2ccccc2)cc1)/C(O)=C(\C#N)c1ccc([N+](=O)[O-])cc1` (stereo partly drawn) gave a Ki of 12 µM.
